For 33 compounds, melting point results are on record in a melting point compilation (Tetko et al.; mined from patent text by program, amines drawn as free bases though some values may be those of a salt).

By melting point is commonly meant the temperature, or range, at which the solid turns liquid.

Each structure is given as a SMILES string.

In turn, `COc1ccc2c(c1)CC(=O)c1cc(C(C)C(=O)O)ccc1S2` (stereo not drawn) registered a melting point of 152 to 153 °C.
As for `Cc1cc(CSc2cccc(OCc3cccc4ccccc34)c2)oc(=O)c1`, the figure is 139 °C; as for `CCC(C(=O)c1ccc(OCc2ccccc2)cc1)c1ccc(OCc2ccccc2)cc1` (stereo not drawn), 84 °C; as for `CCCCCCCCCCCCCCCCCCOc1cn(C)c(CNCCCO)cc1=O`, 79 to 82 °C.
The result for `CCOC(=O)c1ccc(-c2cccc(-c3ccc4c(c3)C(C)(C)CCC4(C)C)c2O)cc1` reads 121 °C; that for `COc1cccc2c1N(S(=O)(=O)c1ccc(-c3ccc(F)cc3F)cc1)C(C(=O)NCCOc1ccc(C(=O)O)cc1)C2` (stereo not drawn), 234 °C.
As for `CCCCc1nc2c(N)nc3cccnc3c2n1CCNC(C)=O`, the figure is 228 to 230 °C.
For the compound `COC(=O)c1ccc(NC(C)=O)cc1NC(=O)NC(C)C`, the melting point was in the range of 153 to 155 °C.
The result for `CCn1cc(C(=O)O)c(=O)c2cc3c(nc21)CCO3` reads 292 °C.
Compound `O=C(NCc1ccc(Cl)cc1)c1cc(F)c2cccnc2c1O` displayed a melting point of 184 to 185 °C.
As for `Cc1ccc(C(c2ccc(C)cc2)(c2ccc(C)cc2)c2ccc(C#N)cc2)cc1`, the figure is 207 to 209 °C; as for `CCCN1C(=O)CN=C(N2CCCCCC2)c2ccccc21`, 115 to 118 °C; as for `N#Cc1cc(-c2ccoc2)c2ccc(Sc3cccc(-c4ccccc4)n3)cc2c1`, 143 to 146 °C.
As for `c1ccc2c(c1)ncn2CN1CCN(Cn2cnc3ccccc32)CC1`, the figure is 250 to 253 °C; as for `C=C(CN1C(=O)c2ccccc2C1=O)c1ccccc1`, 118 to 121 °C.
The result for `CC1SC(=O)N(C(=O)C2CC3CCC2(C)C3(C)C)N=C1c1ccc2c(c1)CCCN2C(=O)c1ccc2c(c1)OCO2` (stereo not drawn) reads 216 to 217 °C.
For `Nc1nc2ccccc2c2c1nc1n2CCCN1`, the melting point was greater than 250 °C.
The result for `Cc1c(-c2c[nH]cc2C#N)cccc1C(F)(F)F` reads 99 to 100 °C; that for `Cc1ccc(-c2cc(C(=O)C=Cc3ccc(C(=O)O)cc3)cc(C(C)(C)C)c2OCC(C)C)cc1`, 243 °C; that for `CCOP(=O)(OCC)Oc1c(C2CCCCN2CCCCNC(=O)c2ccc(NC(=O)c3ccc(Cl)cc3)cc2)ccc2c1CCCC2` (stereo not drawn), 200 °C.
As for `O=[N+]([O-])c1cc(F)ccc1NC1CCN(Cc2ccccc2)CC1`, the figure is 86 to 87 °C; as for `CCOC(=O)[C@H](Cc1ccc(O)cc1)NC(=O)c1c(F)cccc1F`, 149 to 150 °C; as for `CN(C1CC(C)(C)Oc2ccc(O)cc21)S(C)(=O)=O` (stereo not drawn), 159 to 161 °C.
The result for `COc1ccc2c(Cc3ccc(OC4CCCC4N4CCCCC4)cc3)c(-c3ccc(OCCN4CCCC4)cc3)sc2c1` (stereo not drawn) reads 61 to 64 °C; that for `O=C(NN1CCCCC1)C1=NN(c2ccc(Cl)cc2Cl)C(c2ccc(Cl)cc2)C1` (stereo not drawn), 75 to 78 °C; that for `CCOCc1nc2c(N)nc3cc(/C=C/S(=O)(=O)c4ccccc4)ccc3c2n1CCCOC(C)C`, 188 to 190 °C.
Turning to `O=C(Nc1ccc2[nH]c(=O)oc2c1)C(=O)N1CCC(Cc2ccc(Cl)cc2)CC1`, the melting point fell in the range of 147 to 148 °C.
The result for `NCc1noc(-c2nn(Cc3ccccc3)c3ccccc23)n1` reads 118 to 119 °C.
As for `CCCSC1=Nc2cc(C(=O)O)ccc2SN1Cc1ccc(-c2ccccc2C#N)cc1`, the figure is 53 to 68 °C; as for `CC(C)(C)OC(=O)NCC1(O)CCNCC1`, 136 to 138 °C.
The result for `Nc1ccccc1C(=O)c1ccc(Cl)cc1` reads 100 to 102 °C; that for `O=C(O)[C@H](Cc1c[nH]c2ccccc12)NS(=O)(=O)c1ccc2c(c1)Sc1ccccc1O2`, 120 to 130 °C.
`CCN(CC)CC1(C)Cc2c(C)c(N3CCN(c4ccc(OC)cc4)CC3)c(C)c(C)c2O1` (stereo not drawn): the melting point is 103 to 106 °C.
